Patent US20100239556A1, “PROMOTING ECM PRODUCTION BY FIBROBLAST CELLS AND/OR PROMOTING MIGRATION OF FIBROBLAST CELLS IN A BIOLOGICAL SYSTEM” (TGR BioScience Pty Ltd., priority 2006, published 2010)

Columns and labels:
HFF cells [1] = assay: Collagen I production stimulated by SBP eluted from INTEGRA (ELISA); assay type: cell-based, human; conditions: versus control INTEGRA pieces
Procedure: (§1) These experiments were performed by pre-incubating 1 cm×1 cm pieces of INTEGRA® with SBP (25 μg/ml) as described in Example 3 for either 30 minutes or 16 hours, control pieces were pre-incubated in DMEM only. After this time, the pieces of INTEGRA® were washed in fresh media to remove excess SBP solution, and placed into the wells of a 12-well culture plate pre-seeded with HFF cells (2×10^5cells/well) that were grown to confluency over three days. The media from these wells was collected after 24 and 48 hours with peroxidase activity measured (to determine the rate of elution of the proteins with peroxidase activity from the Integra) and the collagen content measured by ELISA (to ensure the eluted proteins with peroxidase activity retained the capacity to stimulate collagen production by the HFF cells). The peroxidase activity was assessed using the Sigmafast™ O-phenylenediamine dihydrochloride (OPD) detection method as per the manufacturers instructions. Briefly, 5 μl of sample was combined with 100 μl of reagent and relative peroxidase activity determined after 5-10 minutes incubation by measuring absorbance at 450 nm using a Wallac Victor Multilabel HTS counter.

[2] = Elution of peroxidase activity from INTEGRA (Sigmafast OPD detection)
Procedure: as §1

HFF cells [3] = assay: Fibroblast infiltration into INTEGRA scaffold (SMA immunohistochemistry); assay type: cell-based, human; conditions: 6 days
Text: INTEGRA® was cut into lcm x lcm pieces using a sterile scalpel, the pieces transferred to a petri dish using sterile forceps and washed four times each with PBS followed by serum-free DMEM, to remove the alcohol storage medium and to equilibrate the porous scaffold for exposure to cells. After the last wash, the INTEGRA® pieces were transferred to the wells of a 12 well tissue culture plate (collagen layer facing up) immersed in media containing proteins having peroxidase activity. This “pre-treatment” of the INTEGRA® with proteins having peroxidase activity was performed for up to 16 hours at 37° C. in a CO2 incubator. […]
Additional experiments were performed as described above using HFF cells and varying the period of application of the proteins having peroxidase activity to include a “pre-treatment” application only (ie INTEGRA® incubated with SBP 25 μg/ml for up to 16 hours prior to the addition of cells), a “pre-treatment” and “post-treatment” application (ie INTEGRA® pre-treated with SBP and SBP added to the culture media once the INTEGRA had been seeded with cells) and a “post-treatment” application only (ie SBP added to the culture media once the INTEGRA® had been seeded with cells). The INTEGRA® was harvested after 6 days in culture and the number of SMA-positive fibroblast cells counted in five representative fields of view of sections from each condition.

HFF cells [4] = assay: ECM production within INTEGRA scaffold (collagen I immunohistochemistry); assay type: cell-based, human; conditions: SBP 25 μg/ml pre-, pre+post- or post-treatment
Text: INTEGRA® was cut into lcm x lcm pieces using a sterile scalpel, the pieces transferred to a petri dish using sterile forceps and washed four times each with PBS followed by serum-free DMEM, to remove the alcohol storage medium and to equilibrate the porous scaffold for exposure to cells. After the last wash, the INTEGRA® pieces were transferred to the wells of a 12 well tissue culture plate (collagen layer facing up) immersed in media containing proteins having peroxidase activity. This “pre-treatment” of the INTEGRA® with proteins having peroxidase activity was performed for up to 16 hours at 37° C. in a CO2 incubator. After the “pre-incubation” period, the media was replaced with fresh DMEM supplemented with 10% FBS (ie normal growth media as the control) containing 5×10^5 human fibroblast cells plus or minus proteins having peroxidase activity. After allowing 24 hours for the fibroblast cells to attach to the collagen matrix of the INTEGRA® scaffold, the INTEGRA® pieces were transferred to fresh 12 well plates to ensure any cells not attached to the matrix surface were removed. Fresh media containing proteins with peroxidase activity were added to the wells and the INTEGRA® pieces incubated for up to 14 days (“post-treatment” period) with the media changed every 7 days as necessary. At the end of the experiment the INTEGRA® pieces were harvested and fixed in 10% buffered formaldehyde before they were processed, embedded in paraffin wax, cut in cross-section and placed onto microscope slides for histological and immunohistochemical analysis.
To confirm proteins having peroxidase activity promote the generation of a three-dimensional human tissue by stimulating the production of collagen and other ECM components to fill the interstices of a three-dimensional framework or scaffold, INTEGRA® pieces collected from the experiments described in Example 3 were analysed for the production of Collagen I (as a representative ECM protein) using immunohistochemistry. […]

Substance: soy bean peroxidase [SBP]
- ECM production (collagen I ELISA) by HFF cells exposed to eluted protein (HFF cells [1]): able to stimulate ECM production
- peroxidase activity eluted, pre-incubated 16 hours compared to 30 minutes [2]: approximately one third more
- peroxidase activity in the medium collected after 24 and 48 hours ([2]; 24 versus 48 hours elution): identical
- number of fibroblast cells infiltrating and populating the INTEGRA (HFF cells [3]; SBP 25 μg/ml pre-, pre+post- or post-treatment, versus 10% FBS control): major influence on the number of fibroblast cells infiltrating and populating
- penetration of HFF cells into the scaffold (HFF cells [3]; SBP 25 μg/ml, controls limited to about the top third): penetrated the full thickness of the scaffold
- production and deposition of cell-associated ECM in the scaffold (HFF cells [4]): as effective at promoting the production and depositon of cell-associated ECM throughout the full thickness of the scaffold
